Assay results from paper PMC7368552 (ACS chemical neuroscience, 2018).
pEC50, pIC50: −log10 of the molar value. Read-outs that look alike come from different tables or passages of the source. One block for each molecule: values may come before it.

Legend:
GSK-3β [1] = conditions: read-out: GSK-3β inhibition IC50; cited from earlier work
[2] = test system: Aβ42 induced neurotoxicity in SH-SY5Y cells; conditions: cited from earlier work
GSK-3β [3] = molecular target: T1, GSK-3β (Homo sapiens, UniProt P49841); assay: ADP-Glo kinase luminescent assay, GSK-3β inhibition; format: biochemical; conditions: for Ligand-lipophilic efficiency (LiPE): LiPE = pIC50 – CLogP
T1 sequence (P49841 whole entry): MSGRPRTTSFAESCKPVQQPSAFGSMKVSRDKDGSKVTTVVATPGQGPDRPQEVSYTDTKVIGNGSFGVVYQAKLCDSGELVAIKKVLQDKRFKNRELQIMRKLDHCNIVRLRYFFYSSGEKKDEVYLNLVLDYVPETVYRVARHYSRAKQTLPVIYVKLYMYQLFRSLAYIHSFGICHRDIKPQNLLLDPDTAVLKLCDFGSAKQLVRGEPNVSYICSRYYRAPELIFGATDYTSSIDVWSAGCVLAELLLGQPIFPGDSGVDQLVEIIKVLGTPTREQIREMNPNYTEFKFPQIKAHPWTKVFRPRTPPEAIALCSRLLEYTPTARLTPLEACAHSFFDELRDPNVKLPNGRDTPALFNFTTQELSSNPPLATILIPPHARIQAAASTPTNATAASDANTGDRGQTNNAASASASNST

[4] = test system: GSK-3β mediated tau phosphorylation at pS396; assay: SH-SY5Y whole-cell lysate GSK-3β assay with human tau pS396 ELISA; format: biochemical; conditions: for effect on GSK-3β mediated tau hyperphosphorylation (pS396): 2, 10 and 50 μM, 2 h, 37 °C, lysate fortified with 0.25% GSK-3β, ELISA
[5] = Parallel artificial membrane permeability assay; conditions: PAMPA; for Papp at 5 h, 20 μM: pH 7.4, PAMPA permeability classification, pH 7.4, 5 h
GSK-3β [6] = molecular target: T1, GSK-3β; assay: GSK-3β kinetic studies; format: biochemical; conditions: 30 0 to 5 μM
[7] = test system: panel of 41 human protein kinases; assay: Kinase selectivity screening, panel of 41 human protein kinases; format: biochemical; conditions: 5 μM
SH-SY5Y cells = assay: Cytotoxicity assessment in SH-SY5Y cells; format: cell-based, human; conditions: 72 h
[8] = test system: Aβ42 induced neurotoxicity in SH-SY5Y cells; assay: Anti-Aβ42 neurotoxicity assay in SH-SY5Y cells; format: cell-based, human

Structure (SMILES): O=C([O-])[O-].[Li+].[Li+] [Lithium carbonate, lithium carbonate]
- pIC50 (GSK-3β [1]): 2.70

Structure (SMILES): O=c1cc(-c2ccc(O)c(O)c2)oc2cc(O)c([C@@H]3O[C@H](CO)[C@@H](O)[C@H](O)[C@H]3O)c(O)c12 [compound 1, isoorientin]
- effective dose protecting SH-SY5Y cells from Aβ42 (morphology) [2]: 200 μM
- pEC50 ([2]; read-out: neuroprotective potency, EC50, parent compound): 4.33

Structure (SMILES): O=c1cc(-c2ccc(O)c(O)c2)oc2c([C@@H]3O[C@H](CO)[C@@H](O)[C@H](O)[C@H]3O)c(O)cc(O)c12 [compound 3, orientin, reference compound]
- pIC50 (GSK-3β [3]; GSK-3β inhibition, IC50, as stated in text): < 2.30

- fold increase of potency against GSK-3β in comparison with 1 (GSK-3β [3]; ratio of IC50 values relative to isoorientin 1): 1.37 fold
Structure (SMILES): COC(=O)[C@H]1O[C@@H](c2c(OC)cc3oc(-c4ccc(OC)c(OC)c4)cc(=O)c3c2OC)[C@H](O)[C@@H](O)[C@@H]1O [compound 7, Methyl (2S,3S,4R,5R,6S)-6-(2-(3,4-Dimethoxyphenyl)-5,7-dimethoxy-4-oxo-4H-chromen-6-yl)-3,4,5-trihydroxytetrahydro-2H-pyran-2-carboxylate]

Structure (SMILES): COc1ccc(-c2cc(=O)c3c(OC)c([C@@H]4O[C@H](C(=O)NC(C)C)[C@@H](O)[C@H](O)[C@H]4O)c(OC)cc3o2)cc1OC [compound 9, (2S,3S,4R,5R,6S)-6-(2-(3,4-Dimethoxyphenyl)-5,7-dimethoxy-4-oxo-4H-chromen-6-yl)-3,4,5-trihydroxy-N-isopropyltetrahydro-2H-pyran-2-carboxamide]
- Ligand-lipophilic efficiency (LiPE) (GSK-3β [3]): ≥ 4
- effect on GSK-3β mediated tau hyperphosphorylation (pS396) [4]: effectively attenuated tau hyperphosphorylation in a dose-dependent manner
- Papp at 5 h, 20 μM [5]: > 1.5 ×10⁻⁶ cm/s

Structure (SMILES): COc1ccc(-c2cc(=O)c3c(OC)c([C@@H]4O[C@H](C(=O)NC5CCCCC5)[C@@H](O)[C@H](O)[C@H]4O)c(OC)cc3o2)cc1OC [compound 17, (2S,3S,4R,5R,6S)-N-Cyclohexyl-6-(2-(3,4-dimethoxyphenyl)-5,7-dimethoxy-4-oxo-4H-chromen-6-yl)-3,4,5-trihydroxytetrahydro-2H-pyran-2-carboxamide]
- effect on GSK-3β mediated tau hyperphosphorylation (pS396) [4]: effectively attenuated tau hyperphosphorylation in a dose-dependent manner
- Papp at 5 h, 20 μM [5]: > 1.5 ×10⁻⁶ cm/s

Structure (SMILES): COc1ccc(-c2cc(=O)c3c(OC)c([C@@H]4O[C@H](C(=O)NCc5ccccc5)[C@@H](O)[C@H](O)[C@H]4O)c(OC)cc3o2)cc1OC [compound 21, (2S,3S,4R,5R,6S)-6-(2-(3,4-Dimethoxyphenyl)-5,7-dimethoxy-4-oxo-4H-chromen-6-yl)-3,4,5-trihydroxy-N-benzyltetrahydro-2H-pyran-2-carboxamide]
- effect on GSK-3β mediated tau hyperphosphorylation (pS396) [4]: effectively attenuated tau hyperphosphorylation in a dose-dependent manner
- Papp at 5 h, 20 μM [5]: 1 to 1.5 ×10⁻⁶ cm/s

Structure (SMILES): COc1ccc(-c2cc(=O)c3c(OC)c([C@@H]4O[C@H](C(=O)N[C@@H](C)C(F)(F)F)[C@@H](O)[C@H](O)[C@H]4O)c(OC)cc3o2)cc1OC [compound 30, (2S,3S,4R,5R,6S)-6-(2-(3,4-Dimethoxyphenyl)-5,7-dimethoxy-4-oxo-4H-chromen-6-yl)-3,4,5-trihydroxy-N-((S)-1,1,1-trifluoropropan-2-yl)tetrahydro-2H-pyran-2-carboxamide]
- selectivity to GSK-3β versus GSK-3α (GSK-3β [3]; 5 μM, ratio of % inhibition): 12.3 fold
- fold increased potency against GSK-3β compared to 9 (GSK-3β [3]; 30 compared to 9): approximately 9 fold
- fold more potent against GSK-3β than epimer 31 (GSK-3β [3]; 30 compared to 31): about 4 fold
- anti-tau effect relative to TDZD-8 ([4]; 10 μM, TDZD-8 at the same concentration): comparable to TDZD-8
- effect on GSK-3β mediated tau hyperphosphorylation (pS396) [4]: effectively attenuated tau hyperphosphorylation in a dose-dependent manner
- inhibition mode with respect to substrate GS2 (GSK-3β [6]; ATP 10 μM, GS2 8 to 66 μM): competed with the substrate GS2
- inhibition mode with respect to ATP (GSK-3β [6]; GS2 17 μM, ATP 2 to 50 μM): no competition between ATP and 30
- inhibition of 40 out of 41 kinases in the test panel [7]: marginal or weak inhibition
- dose with no observable cytotoxicity (SH-SY5Y cells): ≤ 1000 µM
- cell viability recovered (from 40% with Aβ42 alone) ([8]; pretreatment 1.25 to 20 μM for 1 h, then 10 μM Aβ42 for 72 h, dose-dependent): 100%
- effective dose protecting SH-SY5Y cells from Aβ42 (morphology) ([8]; pretreatment, 10 μM Aβ42, 72 h): 10 μM
- recovery at 5 h, 20 μM ([5]; pH 7.4): 30%
- Papp at 5 h, 20 μM [5]: > 1.5 ×10⁻⁶ cm/s

- Ligand-lipophilic efficiency (LiPE) (GSK-3β [3]): ≥ 4
Structure (SMILES): COc1ccc(-c2cc(=O)c3c(OC)c([C@@H]4O[C@H](C(=O)N[C@H](C)C(F)(F)F)[C@@H](O)[C@H](O)[C@H]4O)c(OC)cc3o2)cc1OC [compound 31, (2S,3S,4R,5R,6S)-6-(2-(3,4-Dimethoxyphenyl)-5,7-dimethoxy-4-oxo-4H-chromen-6-yl)-3,4,5-trihydroxy-N-((R)-1,1,1-trifluoropropan-2-yl)tetrahydro-2H-pyran-2-carboxamide]
